Starred links: 1 amine or outer side, 2 acyl side, 3 side chain; linkers in the order of their positions; H or OH if unused. Positions of bridges follow the written chain, without caps; N, C: chain ends. Non-standard residues stand in square brackets, D forms with d. Residues, ends and D or L forms follow the SMILES beside them. Groups on a side chain read outwards from the residue. *: point of attachment. Ala(1-CH2CO2H-4-piperidyl) = N[C@@H](CC1CCN(CC(=O)O)CC1)C(=O)O; Ala(piperidin-4-yl) = O=C([C@H](CC1CCN([*:3])CC1)N[*:1])[*:2]; DOTA = O=C(O)CN1CCN(CC(=O)O)CCN(CC(=O)*)CCN(CC(=O)O)CC1; Trp(5-F) = N[C@@H](Cc1c[nH]c2ccc(F)cc12)C(=O)O; X1 = C[C@@H](c1ccccc1)[C@H](N[*:1])C(=O)[*:2]; Phe(4-F) = N[C@@H](Cc1ccc(F)cc1)C(=O)O; Ala(4-THP) = N[C@@H](CC1CCOCC1)C(=O)O; X3 = O=C([C@H](CCC1CCC1)N[*:1])[*:2]; Val(3-OH) = CC(C)(O)[C@H](N)C(=O)O; Cya = N[C@@H](CS(=O)(=O)O)C(=O)O; 3Pal = N[C@@H](Cc1cccnc1)C(=O)O; 4Pal = N[C@@H](Cc1ccncc1)C(=O)O; PEG4 = NCCOCCOCCOCCOCCC(=O)O; Tle = CC(C)(C)[C@H](N)C(=O)O; hLeu = CC(C)CC[C@H](N)C(=O)O; Nle = CCCC[C@H](N)C(=O)O; NEtG = CCNCC(=O)O
Biological target: T1, human 4lg B7-H3 (Homo sapiens, UniProt Q5ZPR3)
T1 sequence (Q5ZPR3 29-534): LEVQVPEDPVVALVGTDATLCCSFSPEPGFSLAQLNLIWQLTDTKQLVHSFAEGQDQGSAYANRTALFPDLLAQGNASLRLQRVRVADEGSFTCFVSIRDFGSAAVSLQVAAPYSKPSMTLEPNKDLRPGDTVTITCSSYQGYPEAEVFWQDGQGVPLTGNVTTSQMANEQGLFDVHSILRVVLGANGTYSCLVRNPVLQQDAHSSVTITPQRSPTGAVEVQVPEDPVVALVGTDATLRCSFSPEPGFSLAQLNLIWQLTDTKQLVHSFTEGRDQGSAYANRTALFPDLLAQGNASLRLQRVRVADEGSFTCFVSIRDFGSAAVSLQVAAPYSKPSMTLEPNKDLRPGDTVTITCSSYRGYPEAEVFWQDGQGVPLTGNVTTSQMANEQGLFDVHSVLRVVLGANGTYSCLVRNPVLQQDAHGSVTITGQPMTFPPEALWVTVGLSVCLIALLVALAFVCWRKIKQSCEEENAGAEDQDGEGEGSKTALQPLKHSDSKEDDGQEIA
Assay: Affinity determination by surface plasmon resonance (SPR) to 4Ig B7-H3
Details: SPR KD—25° C., 4Ig B7-H3; 25° C. flow cell temperature

Kd [nM] | SMILES
1 to 10 | CC(=O)N[C@@H](CCC(C)C)C(=O)N[C@@H](Cc1ccc(F)cc1)C(=O)N[C@H]1CSSC[C@@H](C(=O)N[C@@H](Cc2c[nH]c3ccc(F)cc23)C(=O)N[C@@H](Cc2ccccc2)C(=O)N[C@H](C(=O)N[C@H](CCCCNC(=O)CN2CCN(CC(=O)O)CCN(CC(=O)O)CCN(CC(=O)O)CC2)C(N)=O)[C@@H](C)O)NC(=O)[C@H](Cc2ccc(O)cc2)NC(=O)[C@H](C(C)C)NC(=O)[C@H](CC(=O)O)NC(=O)[C@H](Cc2ccc(O)cc2)NC(=O)[C@H](CCCCN)NC(=O)CNC(=O)[C@H](C(C)C)NC1=O [compound 192, Ac-hLeu-4FPhe-C-V-G-K-Y-D-V-Y-C-5FW-F-Thr-dLys(DOTA)-CONH2] (Ac-[hLeu][Phe(4-F)]CVGKYDVYC[Trp(5-F)]FT[dK](DOTA)-NH2; disulfide 3-11)
1 to 10 | CC(=O)N[C@@H](CCC(C)C)C(=O)N[C@@H](Cc1ccc(O)cc1)C(=O)N[C@H]1CSSC[C@@H](C(=O)N[C@@H](Cc2c[nH]c3ccc(F)cc23)C(=O)N[C@@H](Cc2ccccc2)C(=O)N[C@H](C(=O)N[C@H](CCCCNC(=O)CN2CCN(CC(=O)O)CCN(CC(=O)O)CCN(CC(=O)O)CC2)C(N)=O)[C@@H](C)O)NC(=O)[C@H](Cc2cccnc2)NC(=O)[C@H](C(C)C)NC(=O)[C@H](CC(=O)O)NC(=O)[C@H](Cc2ccc(O)cc2)NC(=O)[C@H](CCCCN)NC(=O)CNC(=O)[C@H](C(C)C)NC1=O [compound 170, Ac-hLeu-Y-C-V-G-K-Y-D-V-3PyA-C-5FW-F-Thr-dLys(DOTA)-CONH2] (Ac-[hLeu]YCVGKYDV[3Pal]C[Trp(5-F)]FT[dK](DOTA)-NH2; disulfide 3-11)
10 to 100 | CCCC[C@H](NC(C)=O)C(=O)N[C@@H](Cc1ccc(O)cc1)C(=O)N[C@H]1CSSC[C@@H](C(=O)N[C@@H](Cc2c[nH]c3ccccc23)C(=O)N[C@@H](Cc2ccccc2)C(=O)N[C@@H](CCCCN)C(=O)N[C@H](CCCCNC(=O)CN2CCN(CC(=O)O)CCN(CC(=O)O)CCN(CC(=O)O)CC2)C(N)=O)NC(=O)[C@H](Cc2ccc(O)cc2)NC(=O)[C@H](C(C)C)NC(=O)[C@H](CC(=O)O)NC(=O)[C@H](Cc2ccc(O)cc2)NC(=O)[C@H](CCCCN)NC(=O)CNC(=O)[C@H](C(C)C)NC1=O [compound 86, Ac-Nle-Y-C-V-G-K-Y-D-V-Y-C-W-F-Lys-dLys(DOTA)-CONH2] (Ac-[Nle]YCVGKYDVYCWFK[dK](DOTA)-NH2; disulfide 3-11)
10 to 100 | CCCC[C@H](NC(C)=O)C(=O)N[C@@H](Cc1ccc(O)cc1)C(=O)N[C@H]1CSSC[C@@H](C(=O)N[C@@H](Cc2c[nH]c3ccccc23)C(=O)N[C@@H](Cc2ccccc2)C(N)=O)NC(=O)[C@H](Cc2ccc(O)cc2)NC(=O)[C@H](C(C)C)NC(=O)[C@H](CC(=O)O)NC(=O)[C@H](Cc2ccc(O)cc2)NC(=O)[C@H](CCCCN)NC(=O)CN(CC)C(=O)[C@H](C(C)C)NC1=O [compound 52, Ac-Nle-Y-C-V-NetGly-K-Y-D-V-Y-C-W-F-CONH2] (Ac-[Nle]YCV[NEtG]KYDVYCWF-NH2; disulfide 3-11)
1 to 10 | CCCC[C@H](NC(C)=O)C(=O)N[C@@H](Cc1ccc(O)cc1)C(=O)N[C@H]1CSSC[C@@H](C(=O)N[C@@H](Cc2c[nH]c3ccccc23)C(=O)N[C@@H](Cc2ccccc2)C(=O)N[C@H](C(=O)N[C@H](CCCCNC(=O)CN2CCN(CC(=O)O)CCN(CC(=O)O)CCN(CC(=O)O)CC2)C(N)=O)[C@@H](C)O)NC(=O)[C@H](Cc2ccc(O)cc2)NC(=O)[C@H](C(C)C)NC(=O)[C@H](CC(=O)O)NC(=O)[C@H](Cc2ccncc2)NC(=O)[C@H](CCCCN)NC(=O)CNC(=O)[C@H](C(C)C)NC1=O [compound 58, Ac-Nie-Y-C-V-G-K-4PyA-D-V-Y-C-W-F-Thr-dLys(DOTA)-CONH2] (Ac-[Nle]YCVGK[4Pal]DVYCWFT[dK](DOTA)-NH2; disulfide 3-11)

Same assay, conditions: SPR KD—37° C., 4Ig B7-H3; 37° C. flow cell temperature

SMILES | Kd [nM]
CC(=O)N[C@@H](CCC(C)C)C(=O)N[C@@H](Cc1ccc(O)cc1)C(=O)N[C@H]1CSSC[C@@H](C(=O)N[C@@H](Cc2c[nH]c3ccc(F)cc23)C(=O)N[C@@H](Cc2ccccc2)C(=O)N[C@H](C(=O)O)C(C)(C)O)NC(=O)[C@H](Cc2ccc(O)cc2)NC(=O)[C@H](C(C)C)NC(=O)[C@H](CC(=O)O)NC(=O)[C@H](CC2CCN(CC(=O)O)CC2)NC(=O)[C@H](CCCCNC(=O)CN2CCN(CC(=O)O)CCN(CC(=O)O)CCN(CC(=O)O)CC2)NC(=O)CNC(=O)[C@H](C(C)(C)C)NC1=O [compound 343, Ac-hLeu-Y-C-Tbg-G-Lys(DOTA)-Pip(CH2COOH)Ala-D-V-Y-C-5FW-F-hydroxyVal-COOH] (Ac-[hLeu]YC[Tle]GK(DOTA)[Ala(1-CH2CO2H-4-piperidyl)]DVYC[Trp(5-F)]F[Val(3-OH)]-OH; disulfide 3-11) | 10 to 100
CC(=O)N[C@@H](CCC1CCC1)C(=O)N[C@@H](Cc1ccc(O)cc1)C(=O)N[C@H]1CSSC[C@@H](C(=O)N[C@@H](Cc2c[nH]c3ccc(F)cc23)C(=O)N[C@@H](Cc2ccccc2)C(=O)N[C@H](C(=O)N[C@H](CCCCNC(=O)CN2CCN(CC(=O)O)CCN(CC(=O)O)CCN(CC(=O)O)CC2)C(=O)O)C(C)(C)O)NC(=O)[C@H](Cc2ccc(O)cc2)NC(=O)[C@H](C(C)C)NC(=O)[C@H](CC(=O)O)NC(=O)[C@H](CC2CCOCC2)NC(=O)[C@H](CC2CCNCC2)NC(=O)CNC(=O)[C@H](C(C)(C)C)NC1=O [compound 443, Ac-hCba-Y-C-Tbg-G-PipAla-ThpA-D-V-Y-C-5FW-F-hydroxyVal-dLys(DOTA)-COOH] (Ac-[X3]YC[Tle]G[Ala(piperidin-4-yl)][Ala(4-THP)]DVYC[Trp(5-F)]F[Val(3-OH)][dK](DOTA)-OH; disulfide 3-11) | < 1
CC(=O)NCCOCCOCCOCCOCCC(=O)N1CCC(C[C@@H]2NC(=O)[C@H](CC3CCNCC3)NC(=O)CNC(=O)[C@H](C(C)(C)C)NC(=O)[C@@H](NC(=O)[C@H](Cc3ccc(O)cc3)NC(=O)[C@H](CCC(C)C)NC(C)=O)CSSC[C@@H](C(=O)N[C@@H](Cc3c[nH]c4ccc(F)cc34)C(=O)N[C@H](C(=O)N[C@H](C(=O)N[C@H](CCCCNC(=O)CN3CCN(CC(=O)O)CCN(CC(=O)O)CCN(CC(=O)O)CC3)C(=O)O)C(C)(C)O)[C@@H](C)c3ccccc3)NC(=O)[C@H](Cc3ccc(O)cc3)NC(=O)[C@H](C(C)C)NC(=O)[C@H](CC(=O)O)NC2=O)CC1 [compound 515, Ac-hLeu-Y-C-Tbg-G-PipAla-Pip(PEG4-Ac)Ala-D-V-Y-C-5FW-[(2S, 3S)beta-Me-Phe]-hydroxyVal-dLys(DOTA)-COOH] (Ac-[hLeu]YC[Tle]G[Ala(piperidin-4-yl)][Ala(piperidin-4-yl)]([PEG4-Ac])DVYC[Trp(5-F)][X1][Val(3-OH)][dK](DOTA)-OH; disulfide 3-11) | < 1
CC(=O)N[C@@H](CCC(C)C)C(=O)N[C@@H](Cc1ccc(O)cc1)C(=O)N[C@H]1CSSC[C@@H](C(=O)N[C@@H](Cc2c[nH]c3ccc(F)cc23)C(=O)N[C@H](C(=O)N[C@H](C(=O)N[C@H](CCCCNC(=O)CN2CCN(CC(=O)O)CCN(CC(=O)O)CCN(CC(=O)O)CC2)C(=O)O)C(C)(C)O)[C@@H](C)c2ccccc2)NC(=O)[C@H](Cc2ccc(O)cc2)NC(=O)[C@H](C(C)C)NC(=O)[C@H](CS(=O)(=O)O)NC(=O)[C@H](CC2CCOCC2)NC(=O)[C@H](CC2CCNCC2)NC(=O)CNC(=O)[C@H](C(C)(C)C)NC1=O [compound 524, Ac-hLeu-Y-C-Tbg-G-PipAla-ThpA-CysAcid-V-Y-C-5FW-[(2S, 3S)beta-Me-Phe]-hydroxyVal-dLys(DOTA)-COOH] (Ac-[hLeu]YC[Tle]G[Ala(piperidin-4-yl)][Ala(4-THP)][Cya]VYC[Trp(5-F)][X1][Val(3-OH)][dK](DOTA)-OH; disulfide 3-11) | < 1

Further lines, results first:

Kd [nM] | SMILES
< 1 | CC(=O)N[C@@H](CCC(C)C)C(=O)N[C@@H](Cc1ccc(O)cc1)C(=O)N[C@H]1CSSC[C@@H](C(=O)N[C@@H](Cc2c[nH]c3ccc(F)cc23)C(=O)N[C@@H](Cc2ccccc2)C(=O)N[C@H](C(=O)N[C@H](CO)C(=O)O)C(C)(C)O)NC(=O)[C@H](Cc2ccc(O)cc2)NC(=O)[C@H](C(C)C)NC(=O)[C@H](CC(=O)O)NC(=O)[C@H](CC2CCOCC2)NC(=O)[C@H](CC2CCN(C(=O)CCOCCOCCOCCOCCNC(=O)CN3CCN(CC(=O)O)CCN(CC(=O)O)CCN(CC(=O)O)CC3)CC2)NC(=O)CNC(=O)[C@H](C(C)(C)C)NC1=O [compound 490, Ac-hLeu-Y-C-Tbg-G-Pip(PEG4-DOTA)Ala-ThpA-D-V-Y-C-5FW-F-hydroxyVal-dSer-COOH] (Ac-[hLeu]YC[Tle]G[Ala(piperidin-4-yl)]([PEG4-DOTA])[Ala(4-THP)]DVYC[Trp(5-F)]F[Val(3-OH)][dS]-OH; disulfide 3-11)
< 1 | CC(=O)N[C@@H](CCC(C)C)C(=O)N[C@@H](Cc1ccc(O)cc1)C(=O)N[C@H]1CSSC[C@@H](C(=O)N[C@@H](Cc2c[nH]c3ccc(F)cc23)C(=O)N[C@@H](Cc2ccccc2)C(=O)N[C@H](C(=O)N[C@H](C)C(=O)O)C(C)(C)O)NC(=O)[C@H](Cc2ccc(O)cc2)NC(=O)[C@H](C(C)C)NC(=O)[C@H](CC(=O)O)NC(=O)[C@H](CC2CCN(C(=O)CCOCCOCCOCCOCCNC(=O)CN3CCN(CC(=O)O)CCN(CC(=O)O)CCN(CC(=O)O)CC3)CC2)NC(=O)[C@H](CC2CCN(CC(=O)O)CC2)NC(=O)CNC(=O)[C@H](C(C)(C)C)NC1=O [compound 488, Ac-hLeu-Y-C-Tbg-G-Pip(CH2COOH)Ala-Pip(PEG4-DOTA)Ala-D-V-Y-C-5FW-F-hydroxyVal-dAla-COOH] (Ac-[hLeu]YC[Tle]G[Ala(1-CH2CO2H-4-piperidyl)][Ala(piperidin-4-yl)]([PEG4-DOTA])DVYC[Trp(5-F)]F[Val(3-OH)][dA]-OH; disulfide 3-11)

Source: US20250296959A1, “B7-H3 TARGETING PEPTIDES AND CONSTRUCTS THEREOF” (Mariana Oncology Inc., priority 2024, published 2025)
